Data: ChEMBL document CHEMBL1150571, “Hipposulfates A and B, new sesterterpene sulfates from an Okinawan sponge, Hippospongia cf. metachromia” (J Nat Prod, 2001)

Tests used:
Type in all cases: functional, cell-based
[1] = system: P388; experiment: Cytotoxicity against mouse P388 cells
[2] = system: A549; experiment: Cytotoxicity against human A549 cells
[3] = system: HT-29; experiment: Cytotoxicity against human HT-29 cells
[4] = system: SK-MEL-28; experiment: Cytotoxicity against human SK-MEL-28 cells

Measured: IC50

CC1=CC[C@H]2C(C)(C)CCC[C@]2(C)[C@H]1CC/C(=C\OS(=O)(=O)[O-])CCC/C(C)=C/Cc1cc(O)ccc1O.[Na+] [HIPPOSULFATE A]
2 µg/mL: [1] | [2] | [3] | [4]
